Calls of active or inactive are those of the source. No cut-off for these calls is given here.

Assay [1] is filed under the species Homo sapiens. Description: Binding affinity to 15N-labeled RING1B (10 to 116 residues)/BMI1 (1 to 104 residues) (unknown origin) extracted from Escherichia coli BL21 (DE3) cells assessed as chemical shift perturbation by 1H-15N HSQC spectra based NMR titration analysis. The conditions noted are these: dose 30-120 µM.
The nature of assay [2]: Inhibition of 6His-tagged RING1B (10 to 116 residues)/BMI1 (1 to 104 residues) (unknown origin) extracted from Escherichia coli BL21 (DE3) cells preincubated with compound for 1 hrs followed by 3-(1-(4,26-dioxo-30-((3aS,4S,6aR)-2-oxohexahydro-1H-thieno[3,4-d]imidazol-4-yl)-7,10,13,16,19,22-hexaoxa-3,25-diazatriacontyl)-6-methoxy-1H-indol-4-yl)-5-(6-fluoro-1H-indol-4-yl)-4-isopropyl-1H-pyrrole-2-carboxylic acid addition and measured after 1 hrs by Alphascreen competition assay. Also noted: species or system Homo sapiens. On the technique in general: Bead proximity is the source of the signal in Alpha formats.

For assay [3], the system named is TEX. Put plainly: Inhibition of PRC1 in human TEX cells assessed as decrease in global H2Aub level by measuring fold change at 25 uM incubated for 4 days by Western blot analysis (reference value: 1). Type of assay: cell-based. The conditions noted are these: time 4.0 day. In general terms: A western blot detects proteins with antibodies after separation by electrophoresis.

Assay [4] relates to TEX. Description: Inhibition of PRC1 in human TEX cells assessed as decrease in global H2Aub level by measuring fold change at 6.2 uM incubated for 4 days by Western blot analysis (reference value: 1). Type of assay: cell-based. The conditions noted are these: time 4.0 day.
The species entered for assay [5] is Homo sapiens. Description: Binding affinity to 15N-labeled RING1B (10 to 116 residues)/BMI1 (1 to 104 residues) (unknown origin) extracted from Escherichia coli BL21 (DE3) cells assessed as sum of A79, G83 and T89 chemical shift perturbations at 100 uM by NMR binding analysis.
Assay [6] is described as follows: Inhibition of RING1B (10 to 116 residues)/PCGF1 (30 to 138 residues)(unknown origin) using HeLa nucleosome as substrate assessed as reduction in reduction in H2AK119 ubiquitination preincubated with compound for 1 hrs followed by flag-tagged ubiquitin and substrate addition and measured after 1 hrs by Western blot analysis. The arrangement: species or system Homo sapiens.

For assay [7], the species on record is Homo sapiens. Description: Binding affinity to 15N-labeled RING1B (10 to 116 residues)/BMI1 (1 to 104 residues) (unknown origin) extracted from Escherichia coli BL21 (DE3) cells assessed as sum of A79, G83 and T89 chemical shift perturbations at 200 uM by NMR binding analysis.
A short description of assay [8]: Inhibition of RING1B (10 to 116 residues)-BMI1 (1 to 104 residues) (unknown origin) extracted from Escherichia coli BL21 (DE3) cells using HeLa nucleosome as substrate assessed as reduction in reduction in H2AK119 ubiquitination preincubated with compound for 1 hrs followed by flag-tagged ubiquitin and substrate addition and measured after 1 hrs by Western blot analysis. The arrangement: species or system Homo sapiens.

The species named for assay [9] is Homo sapiens. Put plainly: Binding affinity to 15N-labeled 6His-tagged RING1B (10 to 116 residues)/PCGF1 (30 to 138 residues) (unknown origin) assessed as chemical shift perturbation by 1H-15N HSQC spectra based NMR titration analysis. The conditions noted are these: dose 30-120 µM.
In assay [10] the test system is TEX. Description: Inhibition of PRC1 in human TEX cells assessed as decrease in global H2Aub level by measuring fold change at 12.5 uM incubated for 4 days by Western blot analysis (reference value: 1). Type of assay: cell-based. The conditions noted are these: time 4.0 day.
The nature of assay [11]: Inhibition of 6His-tagged RING1A (7 to 113 residues)-BMI1 (1 to 104 residues) (unknown origin) extracted from Escherichia coli BL21 (DE3) cells preincubated with compound for 1 hrs followed by 3-(1-(4,26-dioxo-30-((3aS,4S,6aR)-2-oxohexahydro-1H-thieno[3,4-d]imidazol-4-yl)-7,10,13,16,19,22-hexaoxa-3,25-diazatriacontyl)-6-methoxy-1H-indol-4-yl)-5-(6-fluoro-1H-indol-4-yl)-4-isopropyl-1H-pyrrole-2-carboxylic acid addition and measured after 1 hrs by Alphascreen competition assay. Also noted: species or system Homo sapiens.

In assay [12] the test system is TEX. Put plainly: Upregulation of CEBPalpha gene expression in human TEX cells at 6.2 to 50 uM incubated for 4 days by RT-qPCR analysis. Type of assay: functional, cell-based. The conditions noted are these: dose 6.2-50 µM, time 4.0 day. A general note: Quantitative PCR measures a nucleic acid by following its amplification.
Assay [13] can be described thus: Binding affinity to RING1A (7 to 113 residues)/BMI1 (1 to 104 residues) (unknown origin) extracted from Escherichia coli BL21 (DE3) cells assessed as dissociation constant by ITC analysis. Also noted: species or system Homo sapiens.
For assay [14], the system named is TEX. Description: Downregulation of CD34 gene expression in human TEX cells at 6.2 to 50 uM incubated for 4 days by RT-qPCR analysis. Type of assay: functional, cell-based. The conditions noted are these: dose 6.2-50 µM, time 4.0 day.
Assay [15] is described as follows: Binding affinity to RING1B (10 to 116 residues)/PCGF1 (30 to 138 residues) (unknown origin) assessed as dissociation constant by ITC analysis. The arrangement: species or system Homo sapiens.
The species entered for assay [16] is Homo sapiens. Put plainly: Binding affinity to 15N-labeled RING1B (10 to 116 residues)/BMI1 (1 to 104 residues) (unknown origin) extracted from Escherichia coli BL21 (DE3) cells assessed as ratio of chemical shift perturbations at 1:2 compound concentration ration by NMR binding analysis.
The nature of assay [17]: Inhibition of RING1A (7 to 113 residues)/BMI1 (1 to 104 residues) (unknown origin) extracted from Escherichia coli BL21 (DE3) cells using HeLa nucleosome as substrate assessed as reduction in reduction in H2AK119 ubiquitination preincubated with compound for 1 hrs followed by flag-tagged ubiquitin and substrate addition and measured after 1 hrs by Western blot analysis. Also noted: species or system Homo sapiens.

Assay [18] can be described thus: Binding affinity to RING1B (10 to 116 residues)/BMI1 (1 to 104 residues) (unknown origin) extracted from Escherichia coli BL21 (DE3) cells assessed as dissociation constant by ITC analysis. Also noted: species or system Homo sapiens.
The species entered for assay [19] is Homo sapiens. Description: Binding affinity to 15N-labeled RING1A (7 to 113 residues)/BMI1 (1 to 104 residues) (unknown origin) extracted from Escherichia coli BL21 (DE3) cells assessed as chemical shift perturbation by 1H-15N HSQC spectra based NMR titration analysis. The conditions noted are these: dose 30-120 µM.
Assay [20] concerns TEX. Description: Inhibition of PRC1 in human TEX cells assessed as decrease in global H2Aub level by measuring fold change at 3.1 uM incubated for 4 days by Western blot analysis (reference value: 1). Type of assay: cell-based. The conditions noted are these: time 4.0 day.

For orientation: IC50 means the midpoint of a concentration-inhibition curve. As usually defined, the Kd is the concentration at which binding is half-saturated. Consider `CC(C)c1c(-c2cc(F)cc3[nH]ccc23)[nH]c(C(=O)O)c1-c1c(Cl)ccc2[nH]ccc12`, for which the Activity entry in [1] is “Dose-dependent-effect”; in [5], 248 Hz; in assay [7], 299 Hz; in assay [9] it was “Dose-dependent-effect”; in assay [19], “Dose-dependent-effect”. The concentration for half-maximal inhibition (IC50) in [2] was 2300 nM; in assay [6] it was 1800 nM; in [8], 2800 nM; in [11], 2400 nM; in [17], 2600 nM. For the same compound, the fold change (FC) is 0.17 in [3], 0.9 in assay [4], 0.88 in assay [10] and 1.7 in assay [20]. The outcome in assay [12] and in assay [14] was Active. The dissociation constant Kd in assay [13] amounted to 1700 nM; in assay [15], 1700 nM; in assay [18], 2000 nM. Besides, the Ratio in assay [16] was 0.83.

The values above are taken from ChEMBL document CHEMBL6096680, “Development of PRC1 Inhibitors Employing Fragment-Based Approach and NMR-Guided Optimization” (J Med Chem, 2025).
